# Source: US7531567B2, “Use of a medicament containing an effector of the glutathione metabolism together with α-lipoic acid in kidney replacement therapy” (Serumwerk Bernburg AG, priority 2001, dated 2009)
# What was measured:
# Assay type in all cases: cell-based, human
# [1] = system: peripheral immune cells; assay: membrane-bound thiol expression of peripheral immune cells (CMTMR flow cytofluorimetry); details: α-lipoic acid 50 μM, captopril 10 μM, combination at the same concentrations
# Procedure: Peripheral immune cells of healthy donors (n=9) were isolated from the peripheral blood by means of density gradient centrifugation. Lymphocytes having a donor-dependent relative proportion of about 90% in this case normally represent the main fraction of the resulting total population of mononuclear cells. 10% of the mononuclear cells are represented by monocytes. The mononuclear cells obtained were taken up in special cell culture media and incubated in a gas incubator at 37° C., a relative humidity of 98% and 5% relative air-CO2 content. The metabolism of the primarily resting immune cells was activated by means of mitogenic stimulation (0.5 μg/ml of phytohemagglutinin). In order to test the influence of the combinations used according to the invention on the thiol status of thiol-deficient immune cells, these were artificially thiol-depleted. This was carried out by culturing in thiol-deficient media (RPMI 1603) according to tested procedures. Comparison cultures using whole media (RPMI 1640) served for the definition of the best possible normal value under culture conditions. The expression of membrane-bound thiol groups was likewise determined by flow cytofluorimetry. In this connection, chloromethyltetramethylrhodamine (CMTMR) was employed as a thiol conjugate under the conditions of a blocked membrane potential and of an inhibited diffusion capacity of the cells. The fluorescence intensity of the bound fluorochrome molecules on the cell membrane is in this case in turn proportional to the amount of the thiol groups on the cell surface.
# [2] = system: peritoneal macrophages; assay: stability of membrane-bound thiol restitution in peritoneal macrophages in the dialysis model; details: dialysis model over 14 days; FIG. 7
# Procedure: The peritoneal macrophages described under example 3, which were thiol-restituted by means of the combinations used according to the invention, were removed from this test system after 6 days and cultured in a dialysis model over a period of 14 days. For this, the peritoneal macrophages were adapted to mobile collagen IV-coated matrices and brought into contact with conventional dialysis solution 3 times daily for 60 minutes each. This model served here for the induction of a combined […]/osmotic stress. In FIG. 6, the action of the combination of α-lipoic acid and ambroxole (FIG. 6a), and α-lipoic acid and enalapril (FIG. 6b) on the intracellular thiol expression of the peritoneal macrophages in the time kinetics is presented. The membrane expression of thiols was determined by means of the mean fluorescence intensity (mfi) of the sample (3000 cells/measurement) after coupling to a chloro-methylfluorochrome derivative.
# [3] = system: peritoneal macrophages; assay: cytokine synthesis of peritoneal macrophages (enzyme immunoassay); details: treatment period of 6 days (n=10); α-lipoic acid 50 μM, ambroxole 10 μM, enalapril 5 μM, captopril 10 μM
# Procedure: In parallel to this, in this experimental batch the cell culture supernatants were recovered and the cytokines interleukin-6 (IL-6) and interleukin-1 receptor antagonist (IL-1ra) contained therein, synthesized and secreted by the peritoneal macrophages, were determined.
# [4] = system: lymphocytes (peripheral immune cells); assay: intracellular thiol expression of peripheral immune cells (CMFDA flow cytofluorimetry); details: for intracellular thiol expression: α-lipoic acid 50 μM, captopril 10 μM, combination at the same concentrations
# Procedure: Peripheral immune cells of healthy donors (n=9) were isolated from the peripheral blood by means of density gradient centrifugation. Lymphocytes having a donor-dependent relative proportion of about 90% in this case normally represent the main fraction of the resulting total population of mononuclear cells. 10% of the mononuclear cells are represented by monocytes. The mononuclear cells obtained were taken up in special cell culture media and incubated in a gas incubator at 37° C., a relative humidity of 98% and 5% relative air-CO2 content. The metabolism of the primarily resting immune cells was activated by means of mitogenic stimulation (0.5 μg/ml of phytohemagglutinin). In order to test the influence of the combinations used according to the invention on the thiol status of thiol-deficient immune cells, these were artificially thiol-depleted. This was carried out by culturing in thiol-deficient media (RPMI 1603) according to tested procedures. Comparison cultures using whole media (RPMI 1640) served for the definition of the best possible normal value under culture conditions. […] Primarily nonfluorogenic CMFDA is in this case passively taken up by the cell. Binding to cytoplasmic thiol groups takes place via the chloromethyl radical. After removal of the acetate radicals by nonspecific cellular esterases, this, now cell membrane-impermeable complex becomes fluorogenic at an excitation wavelength λex=490 nm with an emission wavelength λem=520 nm. The mean fluorescence intensity of the sample (10,000 cells) is directly proportional to the concentration of the intracellular thiol groups. In FIG. 1, the action of the combination of α-lipoic acid and ambroxole (FIG. 1a) and α-lipoic acid and enalapril (FIG. 1b) on the intracellular thiol expression of lymphocytes is shown. […] The data are shown as the ratio of the cellular fluorescence intensity for calibration particles (beads) in each case analyzed in parallel. The active compound concentration of the respective combination is identical to the concentrations of the individual components.
# [5] = system: peritoneal macrophages; assay: phagocytic ability of peritoneal macrophages (fluorochrome-labelled bacteria); details: treatment period of 6 days
# Procedure: Peritoneal macrophages were isolated analogously to the procedure described under example 3 and cultured ex vivo. The determination of the phagocytic power was carried out by means of a cytofluorometric test at the individual cell level. In this test, the macrophages were cocultured with opsonized and fluorochrome-labelled bacteria. The amount of bacteria taken up in a defined time period was recorded quantitatively by means of the fluorescence intensity in the macrophages and was regarded as a measure of their phagocytic capacity. The influence of the combinations used according to the invention on the phagocytic ability of the peritoneal macrophages after a treatment period of 6 days is presented in Table 3.
smiles,measurement,setting,value
O=C(O)CCCCC1CCSS1 (stereo not drawn) [α-lipoic acid],Membrane-bound thiol expression,[1]; culture period 0 d,2.37 ± 0.45 mfiBeads/Ratio
same,Membrane-bound thiol expression,[1]; culture period 1 d,2.65 ± 0.39 mfiBeads/Ratio
same,Membrane-bound thiol expression,[1]; culture period 2 d,2.43 ± 0.52 mfiBeads/Ratio
same,Membrane-bound thiol expression,[1]; culture period 3 d,2.31 ± 0.36 mfiBeads/Ratio
same,Membrane-bound thiol expression,[1]; culture period 4 d,2.26 ± 0.20 mfiBeads/Ratio
same,Membrane-bound thiol expression,[1]; culture period 6 d,2.19 ± 0.13 mfiBeads/Ratio
same,Membrane-bound thiol expression,[1]; culture period 8 d,1.93 ± 0.20 mfiBeads/Ratio
same,Membrane-bound thiol expression,[1]; culture period 10 d,1.63 ± 0.16 mfiBeads/Ratio
same,Membrane-bound thiol expression,[1]; culture period 12 d,1.32 ± 0.21 mfiBeads/Ratio
same,Membrane-bound thiol expression,[1]; culture period 14 d,1.34 ± 0.20 mfiBeads/Ratio
same,membrane-bound thiol expression in the dialysis model (in words),[2],intermediate
same,IL-1ra,[3],119.8 ± 19.5 ng/10^6 cells
same,IL-6,[3],46.9 ± 6.7 ng/10^6 cells
same,intracellular thiol expression,[4]; culture period 0 d,2.88 ± 0.20 mfiBeads/Ratio
same,intracellular thiol expression,[4]; culture period 1 d,2.81 ± 0.23 mfiBeads/Ratio
same,intracellular thiol expression,[4]; culture period 2 d,2.76 ± 0.50 mfiBeads/Ratio
same,intracellular thiol expression,[4]; culture period 3 d,2.63 ± 0.60 mfiBeads/Ratio
same,intracellular thiol expression,[4]; culture period 4 d,2.41 ± 0.40 mfiBeads/Ratio
same,intracellular thiol expression,[4]; culture period 6 d,2.23 ± 0.50 mfiBeads/Ratio
same,intracellular thiol expression,[4]; culture period 8 d,2.02 ± 0.30 mfiBeads/Ratio
same,intracellular thiol expression,[4]; culture period 10 d,1.89 ± 0.30 mfiBeads/Ratio
same,intracellular thiol expression,[4]; culture period 12 d,1.86 ± 0.68 mfiBeads/Ratio
same,intracellular thiol expression,[4]; culture period 14 d,1.83 ± 0.60 mfiBeads/Ratio
same,effect on the intracellular thiol deficit (in words),"[4]; thiol-deficient conditions (1603), FIG. 1",Neither by α-lipoic acid alone nor by the individual application of the effectors was a complete equalization of the thiol deficit possible
same,"increase in the phagocytosis rate in relation to the untreated control, factor",[5],1.85
same,Phagocytosis rate,"[5]; α-lipoic acid 50 μM, ambroxole 10 μM, enalapril 5 μM, captopril 10 μM","687 ± 59 mfi/10,000 cells"
